Source: article PMC6240685, “Strong Inhibitory Effect, Low Cytotoxicity and High Plasma Stability of Steroidal Inhibitors of N-Methyl-D-Aspartate Receptors With C-3 Amide Structural Motif” (Frontiers in Pharmacology, 2018)

Columns and labels:
[1] = test system: HepG2 cells; assay: ROS induction (CM-H2DCFDA); assay type: cell-based; conditions: Homo sapiens, HepG2, 72 h; read-out: ROS induction EC50
Experimental: (A) Hepatotoxicity provoked by compound 4 was assessed after 72 h incubation of HepG2 cells in low glucose medium (5 mM) in the presence of compound 4 (0.25–100 μM). (B) Mitochondrial toxicity was determined after 24 h incubation of HepG2 cells in either high glucose medium (25 mM) or galactose medium (10 mM) in the presence of compound 4 (2.5–150 μM). Cell viabilities were recorded in triplicates in three independent experiments and expressed as percentage of vehicle control ± SD and IC50 values were determined by GraphPad Prism software using following equation: Y = Bottom + (Top–Bottom)/(1 + 10ˆ((LogIC50-X)^∗HillSlope)), where IC50 is the concentration of compound 4 that inhibits cell viability half way between Bottom and Top plateaus, X is compound 4 concentration and HillSlope describes the steepness of the family of curves. […] (C) Concentration-dependent effect on ROS level. HepG2 cells were treated with compound 4 (0.25–100 μM) for 72 h, and then the intracellular level of total ROS in relative fluorescence units (RFU) was detected. The data are presented as the mean ± SD for at least three independent experiments and each experiment was carried out in triplicate. Final concentration of DMSO in samples was 1%. […] Single asterisks (^∗) indicate a significant difference (P < 0.05) compared to 1% DMSO control (one-way ANOVA with Dunnett’s post-test).
The effect of neurosteroids on oxidative stress was determined using general oxidative stress indicator CM-H2DCFDA (Thermo Fisher Scientific, Waltham, MA, United States) according to the manufacturer’s instructions. Briefly HepG2 cells were seeded in a 96-well plate at a density of 13,500 cells per well. After 24 h, the tested neurosteroids were added to the culture media and incubated for 72 h. Subsequently, cells were washed with HBSS, treated with 100 μL of 1 μM CM-H2DCF-DA solution in HBSS and incubated for 1 h in the dark at 37°C. Finally, cells were washed three times with HBSS and the fluorescence was measured using 495 excitation and 527 emission in fluorescence microplate reader (Cytation 3, Winooski, VT, United States). IC50 index values were determined by GraphPad Prism version 5.00 for Windows (GraphPad Software, La Jolla, CA, United States).

[2] = test system: native NMDARs; assay: Inhibition of native NMDAR responses in cultured hippocampal neurons; assay type: cell-based, rat
Experimental: FIGURE 8 The effect of compound 6 on peak and steady-state responses of native NMDARs, AMPARs, and GABARs. (A) Examples of traces obtained from cultured hippocampal neurons. Compound 6 (10 μM) was pre-applied in the absence of agonists followed by co-application with NMDA (100 μM), AMPA (100 μM), and GABA (5 μM) (duration of agonist and steroid application is indicated by filled and open bars, respectively). (B) Bar graph represents the mean values of relative changes in the peak (black columns) and steady-state (red columns) responses of native NMDARs, AMPARs, and GABARs recorded in the continuous presence of 10 μM compound 6. Error bars represent SD from five independent measurements. Asterisks mark significance at the level of P < 0.05 (Paired t-test). […]
Electrophysiological experiments were performed on HEK293 cells transfected with plasmids encoding rat GluN1-1a/GluN2A-D and GFP genes as described previously, ([Petrovic et al., 2005]; [Cais et al., 2008]; [Korinek et al., 2010]) or on primary hippocampal neurons prepared from P0–P1 rats, plated on collagen/poly-D-lysine-coated glass coverslips at a density of ∼50,000 cells/cm^2, and grown in Neurobasal A medium with B27 Supplement (Gibco). […] Agonist-induced responses were low-pass filtered at 2 kHz, digitally sampled at 5 kHz, and analyzed with pClamp software version 10.5 (Molecular Devices). […]

SMILES: C[C@@]12CCC[C@H]1[C@@H]1CC[C@@H]3C[C@H](NC(=O)[C@@H](N)CC(=O)O)CC[C@]3(C)[C@H]1CC2 [Compound 6, (S)-3-amino-4-(((3R,5R,8S,9S,10S,13S,14S)-10,13-dimethylhexadecahydro-1H-cyclopenta[a]phenanthren-3-yl)amino)-4-oxobutanoic acid]
- EC50 [1]: > 200 µM
- inhibition of steady-state vs peak response, NMDARs ([2]; 10 μM compound present continuously, NMDA 100 μM): more efficient inhibitor of tonically activated receptors at the steady–state
- IC50 ([2]; 100 μM NMDA, hippocampal neurons): 8.3 ± 2.1 µM
